This note sets out measurements from paper PMC8232551 (RSC Chemical Biology, 2020).

Peptide text beside a SMILES is read from it. * marks the point of attachment. Cbz = O=C(OCc1ccccc1)*

One data set deals with HEK-293 cells. Briefly: Apoptosis assay in HEK-293 cells. Format: cell-based. The note with it: HEK-293 non-cancer derived cells, 10 μM.
The next data set concerns HeLa cells. As to the kind of experiment: Live-cell confocal imaging of uptake of fluorescein-labelled peptides. It counts as cell-based. Conditions: 1000 nM.

In the case of `CC(C)C[C@@H](C=O)NC(=O)[C@H](CC(C)C)NC(=O)[C@H](CC(C)C)NC(=O)OCc1ccccc1` [MG132] (Cbz-Leu-Leu-Leu-aldehyde), the induction of apoptosis result in the data set with HEK-293 cells was “did induce apoptosis”.

In the case of `O=C1OC2(c3ccc(O)cc3Oc3cc(O)ccc32)c2ccccc21` [fluorescein], in the data set on HeLa cells, the “uptake into live HeLa cells” value is listed as “negligible uptake”.
